{
  "source": "paper PMC10233844",
  "about": "(ACS Omega, 2023)",
  "key": {"[1]": {"tested_on": "FAK", "conditions": "read-out: FAK inhibitor IC50; cited from earlier work"}, "[2]": {"target": "thymidylate synthase (TS) (Homo sapiens, UniProt P04818)", "sequence (P04818 whole entry)": "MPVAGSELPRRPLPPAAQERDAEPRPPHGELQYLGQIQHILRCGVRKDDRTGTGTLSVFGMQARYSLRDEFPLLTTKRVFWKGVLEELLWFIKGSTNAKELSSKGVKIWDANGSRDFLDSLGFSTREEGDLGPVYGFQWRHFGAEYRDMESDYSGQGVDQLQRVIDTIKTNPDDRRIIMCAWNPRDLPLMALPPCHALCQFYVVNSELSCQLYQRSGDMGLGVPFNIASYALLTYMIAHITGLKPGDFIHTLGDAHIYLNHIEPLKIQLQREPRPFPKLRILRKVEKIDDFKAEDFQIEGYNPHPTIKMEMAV", "test": "In vitro thymidylate synthase enzymatic assay", "assay_type": "biochemical", "conditions": "compared with pemetrexed"}, "[3]": {"tested_on": "PC-3 cells", "test": "Cell cycle analysis by PI staining, flow cytometry", "assay_type": "cell-based, human", "conditions": "PC-3, at pre calculated IC50, 48 h"}, "[4]": {"tested_on": "PC-3 cells", "test": "Apoptosis analysis, Annexin V-propidium iodide flow cytometry", "assay_type": "cell-based, human", "conditions": "PC-3, 48 h"}},
  "data": [
    {"compound": "N.N.[Cl][Pt][Cl]", "note": "[Cisplatin]", "values": [
      {"measurement": "IC50", "setting": "[1]", "value": 8.6, "unit": "µM"}
    ]},
    {"compound": "C=CCc1ccc(OCc2nn(CN3CCCC3)c(=S)o2)c(OC)c1", "note": "[Compound 15, 5-((4-Allyl-2-methoxyphenoxy)methyl)-3-(pyrrolidin-1-ylmethyl)-1,3,4-oxadiazole-2(3H) Thione]", "values": [
      {"measurement": "TS inhibition in words", "setting": "[2]", "value": "comparable TS repression to pemetrexed"}
    ]},
    {"compound": "C=CCc1ccc(OCc2nn(CN3CCOCC3)c(=S)o2)c(OC)c1", "note": "[Compound 17, 5-((4-Allyl-2-methoxyphenoxy)methyl)-3-(morpholinomethyl)-1,3,4-oxadiazole-2(3H)-thione]", "values": [
      {"measurement": "percentage of cell population at G1 phase", "setting": "[3]", "value": 29.30, "unit": "%"},
      {"measurement": "percentage of cell population at G2 phase", "setting": "[3]", "value": 8.61, "unit": "%"},
      {"measurement": "percentage of cell population at the S phase", "setting": "[3]", "value": 62.07, "unit": "%"},
      {"measurement": "necrotic cells (R1, % Parent)", "setting": "[4]", "value": 3.56, "unit": "%"}
    ]}
  ]
}
